According to patent publication US10144727B2, “Deoxynojirimycin derivatives and methods of their using” (priority 2013, dated 2018):
“Also recorded” adds a separate entry of the source.

Key:
DENV2 Strain S221 = assay: Survival analysis of UV-12 in A129 ADE model of dengue infection; assay type: in vivo, A129 mice; conditions: 100 mg/kg/dose orally 3x per day for 7 days, first dose 1 hr before IV challenge
Source text: Purpose: This study determined the efficacy of UV-12 in promoting survival of mice challenged with dengue virus. Compound were given by the oral route (3× per day intragastric via oral gavage—IG) for a total number of 7 days after the start of dosing. The experiment used the A129 ADE model of infection. (Prestwood T R, Morar M M, Zellweger R M, Miller R, May M M, Yauch L E, Lada S M. Shresta S. Gamma interferon (IFN-γ) receptor restricts systemic dengue virus replication and prevents paralysis in IFN-α/β receptor-deficient mice. J Virol. 2012 December; 86(23):12561-70.) Animals received the virus challenge dose ˜1 LD90 on day 0. The first dose was given 0.5-1 hr pre-virus challenge. Survival was measured until 30 days after infection.
Mice: Sex matched 5-6 weeks old A129 (129/SV IFN-α, -β receptor^−/−)
Iminosugar: Orally 3× day, (gavage (IG)) every 8 hours
Antibody and Iminosugar Compound were given simultaneously, then virus within 30 minutes
Antibody: 100 μg 2H2 (IgG2a anti-DENV1-4 prM) from ATCC, day 0 and day 1 in 40 ul
Virus: DENV2 Strain S221 (v512) (Zellweger R M, Prestwood T R, Shresta S.
Dose: 1E11 GE (genomic equivalents) per animal
Animal survival. Animals displaying severe illness (as determined by 20% weight loss, extreme lethargy, ruffled coat, or paralysis) are euthanized.
FIG. 5 presents results of this study. […]

[1] = tested on: influenza A/Texas/36/91 (H1N1); assay: Efficacy of UV-12 and UV-28 against lethal INFV A/Texas/36/91 (H1N1) challenge in mice; assay type: in vivo, BALB/c mice; conditions: for % Survival / Mean Survival: ~1LD90 intranasal; for Health score recovery of infected mice: 100 mg/kg TID; for Weight recovery of infected mice: treated infected mice
Protocol: Study Summary: This study tested the ability of iminosugars UV-12 and UV-28 to protect mice from lethal influenza infection (˜1LD90 of influenza A/Texas/36/91 (H1N1) administered intranasally). Compounds were delivered 30-60 minutes prior to viral challenge via the oral (IG) route at 100 or 40 mg/kg and continued three times daily for 10 days. The mice used were ˜20 gram, 6-8 week old female BALB/c mice in groups of 10 for efficacy (a summary of the study groups is shown in Table 1). Temperature and weights were taken daily. Endpoint was day 14 post infection, death, or euthanasia. Animals displaying severe illness as determined by >30% weight loss, extreme lethargy, or paralysis were euthanized.
This study tested the ability of UV-12 and UV-28 to protect mice from lethal influenza infection. The mice used were 6-8 week old female BALB/c mice in groups of 10 (see Table 5 below). Mice were treated with 100 or 40 mg/kg three times daily (TID) via IG route starting approximately 30-60 minutes prior to challenge. Mice were challenged with ˜1 LD90 of influenza A/Texas/36/91 (H1N1) administered intranasally (IN). Endpoint was day 14 post infection, death, or euthanasia. Animals displaying severe illness as determined by >30% weight loss, extreme lethargy, or paralysis were euthanized. Temperature and weights were taken daily.
3. The groups of mice challenged with INFV were infected via intranasal (IN) inoculation with ˜1×LD90 in 100 μL of a 1:500 dilution of INFV in PBS under light anesthesia (Isoflurane).
1. Mice were treated with 100 or 40 mg/kg of test article given by the IG route in 100 μL of water (see Table 5 for dosing regimens) three times daily for 10 days.
(§1) 1. Mice were observed through 13 days post infection (14 days total, 0-13 days post infection).
(§2) 2. Mice were weighed daily on an Ohause scale and the weights were recorded.
3. All animals had chips implanted at least 3 days prior to virus challenge that monitored the body temperature. The temperatures were recorded daily.
4. Survival and health of each mouse was evaluated once time a day using a scoring system of 1-7.
FIG. 1 is a plot presenting survival data of infected mice grouped by treatment. The survival data plotted in FIG. 1 were analyzed using the Mantel-Cox (Log rank) test in GraphPad Prism.

[2] = 100 mg/kg oral TID; for Survival without a viral challenge: uninfected, n=3
[3] = tested on: influenza A/Texas/36/91 (H1N1); assay: Efficacy of selected iminosugars in mice; Influenza A/Texas/36/91 (H1N1) challenge; assay type: in vivo, BALB/c mice; conditions: for Survival versus untreated/vehicle control group / Survival rate / MTD: 100 mg/kg oral TID for 10 days; for Survival rate / MTD: infected ~1 LD90
Protocol: (§3) Study Summary: This study analyzed the toxicity and efficacy of UV-8, UV-9, UV-10, UV-11, and UV-12 in mice during an H1N1 influenza infection. […] In the current study, we examined delivery doses of UV-4B. UV-8, UV-9, UV-10. UV-11 and UV-12 at 100 mg/kg, delivered ter in die by the oral route (intragastric via oral gavage or IG. Small groups (n=3) that were included to examine gross toxicity received 100 mg/kg of the iminosugars but without a viral challenge. UV-4B, UV-8. UV-9, UV-10. UV-11 or UV-12 was delivered to the animals starting at 1 hour before intranasal infection (IN) with ˜1 LD90 of influenza A/Texas/36/91 (H1N1). Animals were then treated TID for 10 days total (days 0-9 post infection). Efficacy was evaluated by comparing survival, temperature changes, and weight gain/loss to an infected untreated control group.
This study aimed to determine the efficacy of UV-8. UV-9, UV-10, UV-11, and UV-12 when administered orally at 100 mg/kg TID against a lethal intranasal infection with influenza virus A/Texas/36/91 (H1N1) in the BALB/c mouse model. In addition to the efficacy arm, each of the iminosugars was tested in a small group of animals with the same treatment regimen (100 mg/kg, oral gavage, TID) in the absence of a viral infection to examine gross toxicity of each analog (general health, weight, temperature, and mortality evaluations).
UV-8, -9, -10, -11, -12, and UV-4B were prepared in H2O at 20 mg/ml for a delivery dose of 100 mg/kg, assuming ˜20 g mice given 0.1 mL of compound. Groups of BALB/c mice were treated at one hour before (−1 h) intranasal infection with ˜1 LD90 of INFV A/Texas/36/91 (H1N1) and then compounds were administered three times daily for a total of 10 days (see Table 12 for study design summary). Weights, temperature, and survival were monitored and used for evaluation of protective efficacy and toxicity of each analog.
3. The groups of mice challenged with influenza were anesthetized with 5% Isofluorene and maintained at 2.5% prior to intranasal inoculation with ˜1 LD90 of INFV in 100 μL PBS.
1. Mice were treated starting at 1 hour before infection with 100 μL of compound in H2O (see Table 12 for dosing regimens) three times a day for 10 days total with 100 mg/kg of UV-4B, UV-8, UV-9, UV-10, UV-11, or UV-12 compound given by the oral route (intragastric via oral gavage). 2. After dosing, mice were returned to their cages and monitored for any distress related to dosing.
as §1, §2
3. All animals had chips implanted that monitored the body temperature. The temperatures were recorded daily.
4. Survival and health of each mouse was evaluated three times a day using a scoring system of 1-7.
5. Mice were euthanized when scored at 5 or above (Very Sick; Very Rufftled Coat; Closed, inset eyes; Slow to no movement; Will return to upright position if put on its side; extremely lethargic).

H1N1 = assay: Previous studies: oral UV-4B TID at 100 mg/kg against H1N1; assay type: in vivo; conditions: oral TID at 100 mg/kg
Protocol: as §3

SMILES	Survival without a viral challenge [2] [%]	Survival versus untreated/vehicle control group [3]	Survival rate [3] [%]	MTD [3] [days]	further results
OCC1C(O)C(O)C(O)CN1CCCCCCCCC1CCCO1 (mixture of isomers) [UV-12]	100	significant increase in survival	90	–	Survival compared to control animals (DENV2 Strain S221): increased survival; % Survival ([1]; 40 mg/kg TID IG for 10 days): 20%; Mean Survival ([1]; 40 mg/kg TID IG for 10 days): 9 days; % Survival ([1]; 100 mg/kg TID IG for 10 days): 100%; Mean Survival ([1]; 100 mg/kg TID IG for 10 days): >13 days; Health score recovery of infected mice ([1]; FIG. 4): fully recovered from the infection and returned to normal; Weight recovery of infected mice [1]: almost completely recovered; Recovery after dosing regimen completed, uninfected mice [2]: able to fully recover; Toxicity in the uninfected group [2]: mild toxicity with steady weight loss; Weight loss overall in uninfected mice [2]: ≤ 10%; Overall temperature and weight versus vehicle control ([3]; 100 mg/kg oral TID, infected mice): significant increases in overall temperature and weight
COC(C)(C)CCCCCCCCN1C[C@H](O)[C@@H](O)[C@H](O)[C@H]1CO [UV-28]	–	–	–	–	% Survival ([1]; 40 mg/kg TID IG for 10 days): 60%; Mean Survival ([1]; 40 mg/kg TID IG for 10 days): >13 days; % Survival ([1]; 100 mg/kg TID IG for 10 days): 100%; Mean Survival ([1]; 100 mg/kg TID IG for 10 days): >13 days; Health score recovery of infected mice ([1]; FIG. 4): never recovered their health score; Toxicity compared (health scores) ([1]; FIG. 4): more toxic than UV-12; Weight recovery of infected mice [1]: did not recover their weight as well
OCCCCCCCCCN1C[C@H](O)[C@@H](O)[C@H](O)[C@H]1CO [UV-11]	100	did not show any improvement in survival	0	8	–
COC(=O)CCCCCCCCN1C[C@H](O)[C@@H](O)[C@H](O)[C@H]1CO [UV-10]	100	did not show any improvement in survival	0	7.5	–
COCCCCCCCCCN1C[C@H](O)[C@@H](O)[C@H](O)[C@H]1CO [UV-4B, N-9-methoxynonyl-deoxynojirimycin, reference compound]	–	significant increase in survival	100	–	Efficacy against H1N1 (H1N1): resulted in efficacy; Signs of toxicity (H1N1): did not show any discernible signs of toxicity
COCCCCCCCCC(=O)N1C[C@H](O)[C@@H](O)[C@H](O)[C@H]1CO [UV-8]	100	did not show any improvement in survival; also recorded: no significant difference from the vehicle control group	30	10.5	–
COCCCCCCCOC(=O)N1C[C@H](O)[C@@H](O)[C@H](O)[C@H]1CO [UV-9]	100	did not show any improvement in survival	0	7	–
